≈ marks a conversion by molar mass, not a printed value.
How the values were obtained:
MCF-7 = test: MTT cell proliferation assay, MCF-7; format: cell-based; details: Homo sapiens, MCF7, MCF-7 breast cancer, 48 h
Protocol: (§1) The effects of the synthesized amide anthraquinone derivatives on the proliferative activity of eight human cancerous cell lines (EC9706, MCF-7, SGC-7901, HepG2, QBC939, HeLa, HCT116 and SW480) in addition to two normal human cell lines (colorectal FHC and liver HL7702) were evaluated using the standard MTT assay.
(§2) The human esophageal cancer cell line EC9706 was obtained from Cancer Hospital and Institute by Prof. Ming Rong Wang, Chinese Academy Medical of Sciences. The human colorectal carcinoma cell lines HCT116 and SW480, hepatoma cell line HepG2, cervical carcinoma cell line HeLa, breast cancer cell line MCF-7, gastric cancer cell line SGC-7901, cholangiocarcinoma cell line QBC939, normal fetal colon cell line FHC and liver cell line HL-7702 were obtained from the Cell Bank of the Shanghai Chinese Academy of Sciences. All cells were cultured in RPMI 1640 medium containing 100 U/mL penicillin and streptomycin and 10% fetal bovine serum and maintained at 37°C under a 5% CO2 atmosphere.
(§3) We analyzed the inhibitory effects of eight anthraquinone-amino acid derivatives on the proliferation of eight tumor cell lines and two normal cell lines in vitro using MTT assays. Cells were added to a 96-well plate with (5,000 cells per well in 100 µL RPMI-1640 medium). Cells were treated with different concentrations (10–100 μg/mL) of 8a–8h for 48 h and then incubated with 20 μL MTT (5 mg/mL) for another 4 h at 37°C. DMSO (150 μL) was then added to each well to dissolve the formazan crystals. The absorbance of each well was read at 490 nm on a microtiter plate ELISA reader. The mean values were obtained from a minimum of three parallel experiments. IC50 values were calculated.

HeLa = test: MTT cell proliferation assay, HeLa; format: cell-based; details: Homo sapiens, HeLa cervical cancer, 48 h
Protocol: as §1, §2, §3

FHC = test: MTT cell proliferation assay, normal colorectal cells FHC; format: cell-based; details: FHC normal human colorectal mucosa, 48 h
Protocol: as §1, §2, §3

HCT116 cells = test: MTT cell viability with or without SP600125; format: cell-based, human; details: 8a alone, 24 h, compared with the control
Protocol: Furthermore, to further investigate whether activation of phosphorylated JNK affects cell viability, HCT116 was co-treated with 8a and SP600125 (JNK inhibitor), and the effect of phosphorylated JNK inactivation on HCT116 cell activity was examined by MTT. […] Following co-treatment with 8a and SP600126, the rate cell viability was 55%. The inhibitory proliferation activty of 8a were partially weakened by the usage of 5 μM Sp600125.
Figure 9 The effect of 8a treatment on phosphorylated JNK and JNK expression levels. (A) Western blot analysis of phosphorylated JNK and JNK expression levels of in HCT116 cells treated with 20 μg/mL 8a for time-periods; (B) The expression levels of the phospho-JNK proteins were determined after treatment of HCT116 cells with 20 μg/mL 8a with or without NAC. Data represent the mean ± standard deviation of three independent experiments; (C) Grayscale analysis of the relative protein level of phosphorylated JNK. Data represent the mean ± standard deviation of three independent experiments. * p < 0.05; (D) MTT assay of HCT116 cells viability following treatment with 8a and SP600125 for 24 h.

[1] = system: caspase 9, cleaved caspase 9, caspase 3, cleaved caspase 3; test: Western blot, caspases; format: cell-based, human; details: HCT116, western blot
Source text: Caspases represent a key molecular group in the regulation of apoptosis. In caspases, there is an upstream and downstream relationship between the initiator of apoptosis and executioner. Caspase 3 is one of the key executers of apoptosis, as it is either partially or totally responsible for the proteolytic cleavage of many key proteins. For example, when caspase 9 is activated, it activates caspase 3, which ultimately triggers cell apoptosis. After detecting the expression of the corresponding Bcl-2 family proteins after 8a treatment by western blotting, we went on to detect the expression levels of PARP, caspase 9, cleaved caspase 9, caspase 3, and cleaved caspase 3 proteins. […] After 24 h of treatment with zVAD-FMK, cell viability is 93%.
The expression of signaling pathway-related proteins was detected by western blot analysis. Cell (1 × 10^6) were plated in 90-mm dishes and treated with 8a for 24 h. The cells were treated with NAC in the same way as in step 4.7. Resuspend the cells in Buffer A (1 mM EDTA, 1 mM PMSF, 0.28 μg/mL apotinin, 50 μg/mL leupeptin, 7 μg/mL pepstain A) and transferred to a 1 mL glass homogenizer and pull up and down 30 times in an ice bath. Cells were collected and centrifuged (1000 g × 10 min, 4 °C). […] Protein concentrations in the supernatant were determined by using a Minbio BCA protein assay kit. […]

cytochrome c = test: Western blot, cytochrome c in cytoplasm and mitochondria; format: cell-based, human; details: 10 or 20 μg/mL, 24 h, HCT116, western blot
Protocol: Decreased mitochondrial membrane potential is a hallmark of early cell apoptosis, and a decrease in mitochondrial membrane potential leads to the release of certain mitochondrial proteins, such as cytochrome c, which mediate apoptosis. Therefore, we examined changes in mitochondrial membrane potential by flow cytometry. HCT116 cells were treated with 8a (10 or 20 μg/mL) for 24 h and then stained with 2 μg/mL JC-1 for 30 min prior to flow cytometric analysis. Green /orange fluorescence ratio of JC-1, compare with control, is 200% and 494.4%, respectively (Figure 8E,F). […] During apoptosis, mitochondrial cytochrome C is released into the cytoplasm and triggers the activation cascade of caspase. HCT116 cells were collected after 8a treatment, cytoplasmic protein and mitochondrial protein were extracted. The levels of cytochrome c in the cytoplasm and mitochondria were detected by Western blotting. After treatment of HCT116 cells with 8a (10 or 20 μg/mL) for 24 h, cytoplasmic levels of cytochrome c increased, while the levels in the mitochondria decreased.
The expression of signaling pathway-related proteins was detected by western blot analysis. Cell (1 × 10^6) were plated in 90-mm dishes and treated with 8a for 24 h. The cells were treated with NAC in the same way as in step 4.7. […] Protein concentrations in the supernatant were determined by using a Minbio BCA protein assay kit. […]

IC50 (MCF-7): 33.34 ± 0.28 µg/mL (≈ 81.2 µM) | IC50 (HeLa): 29.75 ± 0.15 µg/mL (≈ 72.5 µM)
SMILES: CC(C)CC(NC(=O)c1ccc2c(c1[N+](=O)[O-])C(=O)c1ccccc1C2=O)C(=O)O (centres unmarked) [Compound 8a, N-[(9,10-dihydro-1-nitro-9,10-dioxo-2-anthracenyl)carbonyl-leucine]]
IC50 (FHC): > 1000 µg/mL | cell viability (HCT116 cells): 39% | expression of cleaved caspase 9 and cleaved caspase 3 [1]: increased in a dose-dependent manner | caspase 9 and caspase 3 expression levels ([1]; with increasing 8a concentration): gradually decreased | cytochrome c levels in the mitochondria (cytochrome c): decreased | cytoplasmic levels of cytochrome c (cytochrome c): increased
